This note sets out measurements from patent US11167007B2, “FOXM1 modulators and uses thereof” (City of Hope, priority 2016, dated 2021).

The test addresses T1, FOXM1 (Rattus norvegicus, UniProt P97691).
T1 construct: from tissue; host or cells: Sprague Dawley rat spinal cord
T1 sequence (P97691 1-759): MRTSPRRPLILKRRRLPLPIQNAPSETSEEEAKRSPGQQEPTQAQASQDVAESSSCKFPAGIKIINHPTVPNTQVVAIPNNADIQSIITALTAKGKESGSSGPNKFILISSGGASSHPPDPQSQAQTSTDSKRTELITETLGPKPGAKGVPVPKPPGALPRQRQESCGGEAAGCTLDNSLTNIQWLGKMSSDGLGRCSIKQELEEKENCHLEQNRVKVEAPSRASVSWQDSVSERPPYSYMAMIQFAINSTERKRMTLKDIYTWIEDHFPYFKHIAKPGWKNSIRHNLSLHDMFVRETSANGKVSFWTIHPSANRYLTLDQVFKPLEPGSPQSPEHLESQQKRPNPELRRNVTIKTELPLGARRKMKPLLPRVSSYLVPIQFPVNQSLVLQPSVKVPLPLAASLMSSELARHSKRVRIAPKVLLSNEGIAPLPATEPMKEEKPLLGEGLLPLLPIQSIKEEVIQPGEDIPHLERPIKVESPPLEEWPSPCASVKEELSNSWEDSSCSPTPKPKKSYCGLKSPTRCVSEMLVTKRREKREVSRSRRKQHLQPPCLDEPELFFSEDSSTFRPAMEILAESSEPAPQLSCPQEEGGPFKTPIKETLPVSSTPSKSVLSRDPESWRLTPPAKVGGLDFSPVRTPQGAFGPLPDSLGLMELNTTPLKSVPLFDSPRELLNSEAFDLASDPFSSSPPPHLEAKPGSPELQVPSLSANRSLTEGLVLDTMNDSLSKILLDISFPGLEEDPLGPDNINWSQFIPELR
Nature of the test: RT-qPCR of FOXM1 target gene transcripts in spinal cord. It is filed as in vivo. As to conditions: rats, compared to intact controls, FIG. 5G. The method, then: Animals and Drugs. This study was carried out in strict accordance with the recommendations in the Guide for the Care and Use of Laboratory Animals of the National Institutes of Health. All experiments were performed under the IUCAC approval of City of Hope. Animals were purchased from Jackson Laboratory (Bar Harbor, Main). For the pilot pharmacokinetic experiment, nine male Sprague Dawley rats (n=3) were administered 1, 10, or 100 mg/kg intraperitoneal injections thrice per week for four weeks. One hour following the final dose, blood and spinal fluid were collected and analyzed by mass spectrometry. For the efficacy experiment, rats were divided into 3 groups (n=7) as follows: intact, castrated, and thiostrepton. […] Following a treatment period of 7 days, rats were euthanized and organs harvested, weighed and processed for quantitative RT-PCR.
qRT-PCR. The quantitative RT-PCR method has been described by Jones et al, ACS Chem Biol, 3(7):412-8 (2008). […] Differences between experimental (x) and control (y) samples were normalized to RPL19 transcript levels (androgen unresponsive) and determined with the following calculation: (2^(Ctsgene1-Ctygene1))/(2^(CtxRPL19-CtyRPL19)) One-way analysis of variance was applied to determine statistical significant among groups, where p<0.05 was considered significant. […]

SMILES strings stand for the structures.

As to `C=C(NC(=O)C(=C)NC(=O)c1csc(C2=N[C@@H]3c4csc(n4)[C@H]4NC(=O)c5csc(n5)[C@H]([C@](C)(O)[C@@H](C)O)NC(=O)[C@H]5CSC(=N5)/C(=C/C)NC(=O)[C@H]([C@@H](C)O)NC(=O)c5csc(n5)[C@]3(CC2)NC(=O)[C@H](C)NC(=O)C(=C)NC(=O)[C@H](C)NC(=O)[C@H]([C@@H](C)CC)N[C@@H]2C=Cc3c([C@H](C)O)cc(nc3[C@H]2O)C(=O)O[C@@H]4C)n1)C(N)=O` [thiostrepton], the “transcript levels of FOXM1 target genes Ccndl and Sox2” value is given as “decreased”.
